# Data: patent US20210022305A1, “A HUMULUS PLANT VARIANT AND EXTRACTS THEREOF” (BOMI LLC, priority 2018, published 2021)
# Tested on: VIC cells
# Test: VIC calcification reduction (Alizarin Red S nodule number and area)
# Type: cell-based, porcine
# Protocol: VIC Isolation and Culture. VICs were isolated from porcine aortic valve leaflets (Hormel, Austin, Minn.) by collagenase digestion and subsequently cultured in growth medium (15% FBS, 2 mM L-glutamine, 100 U/ml penicillin, and 100 µg/ml streptomycin in medium 199) at 37° C., 5% CO2 for two to four passages. VICs used in all experiments were seeded at a density of 50,000 cells/cm^2 onto 24-well or 96-well plates. During the experiments, the VICs were cultured in low-serum medium (1% FBS, 100 U/ml penicillin, 100 µg/ml streptomycin, 2 mM L-glutamine, in medium 199), and the medium was changed each day until the fifth day.
# Culture Substrate Coatings. Tissue culture polystyrene (TCPS) plates (24-well or 96-well) were coated with type I collagen (Coll) (Inamed Biomaterials, Fremont, Calif.; […]), fibronectin (FN, 5 g/cm^2), fibrin (FB, […]), or left untreated (TCPS). For the FB coating, plates were first incubated overnight at 4° C. in fibrinogen (1 mg/mL), followed by three washes with 0.05% Tween 20 in phosphate-buffered saline (PBS) and 1 hour incubation with thrombin (0.6 mg/ml) at 37° C. (Gu et al., “Role of the MAPK/ERK Pathway in Valvular Interstitial Cell Calcification,” American Journal of Physiology—Heart and Circulatory Physiology 296(6):H1748-H1757 (2009), which is hereby incorporated by reference in its entirety). All coatings were prepared in 50 mM bicarbonate coating buffer, pH 8.5, and rinsed three times with PBS before cell seeding. The amounts of adsorbed proteins were measured on separate plates using the bicinchoninic acid protein assay (Pierce, Rockford, Ill.) to verify adsorption of protein coatings.
# Quantification of Nodule Number and Size. After 5 days of culture in the presence or absence of U-0126 or PD-98059, VIC cultures were stained with Alizarin Red S (ARS) to facilitate quantification of calcified nodules, as ARS stains mineralized deposits red. Cultures were fixed with 10% neutral buffered formalin, stored at 4° C. overnight, and stained with a 2% solution of ARS in PBS. Positively stained nodules were manually counted under a microscope (Olympus IX51 with Hamamatsu 285 digital camera and Simple PCI digital imaging software; Compix, Imaging Systems, Cranberry Township, Pa.). Nodule size was measured using ImageJ software (National Institutes of Health), and photomicrographs were captured under 40 and 100 magnifications.
# Multiplate wells containing calcifying VICs from 27 different tissue samples were treated with CBD of 8 different bioactivities, and 5 different mg concentrations, or left untreated. Average calcification was computed using the number of nodules per well, and the average area per nodule. Average total nodule area for untreated wells was 3.27 mm^2 (SD=0.32, min=0.5, max=4.0) per well. All reported percent reductions in calcification were computed by dividing average nodule area of treated wells from 3.27 mm^2. CBD samples were clustered according to their bioactivity levels around the values, 0.20, 0.30, 0.50, 0.60, 0.70, 0.80, 0.90, and 0.95. Mg dosages of 5, 10, 25, 40, and 100 were examined.
# Culture Substrate Coatings. Tissue culture polystyrene (TCPS) plates (24-well or 96-well) were coated with type I collagen (Coll) (Inamed Biomaterials, Fremont, Calif.; […]), fibronectin (FN, 5 g/cm^2), fibrin (FB, 1.5 g/cm^2), or left untreated (TCPS). For the FB coating, plates were first incubated overnight at 4° C. in fibrinogen (1 mg/mL), followed by three washes with 0.05% Tween 20 in phosphate-buffered saline (PBS) and 1 hour incubation with thrombin (0.6 mg/mL) at 37° C. All coatings were prepared in 50 mM bicarbonate coating buffer, pH 8.5, and rinsed three times with PBS before cell seeding. The amounts of adsorbed proteins were measured on separate plates using the bicinchoninic acid protein assay (Pierce, Rockford, Ill.) to verify adsorption of protein coatings. […]
# [1] = Example 4, 5 mg, CBD = 0.95 bioactivity
# [2] = Example 4, 10 mg, CBD = 0.95 bioactivity
# [3] = Example 4, 25 mg, CBD = 0.95 bioactivity
# [4] = Example 4, 40 mg, CBD = 0.95 bioactivity
# [5] = Example 4, 100 mg, CBD = 0.95 bioactivity
compound,measurement,setting,value
"C=C(C)C1CCC(C)=CC1c1c(O)cc(CCCCC)cc1O (stereo not drawn) [CBD, 2-(6-isopropenyl-3-methyl-2-cyclohexen-l-yl)-5-pentyl-1,3-benzenediol]","Calcification reduction, M","5 mg, bioactivity .20",5.17%
same,"Calcification reduction, Max","5 mg, bioactivity .20",6.9%
same,"Calcification reduction, Min","5 mg, bioactivity .20",3.8%
same,"Calcification reduction, M","5 mg, bioactivity .30",6.16%
same,"Calcification reduction, Max","5 mg, bioactivity .30",7.3%
same,"Calcification reduction, Min","5 mg, bioactivity .30",5.2%
same,"Calcification reduction, M","5 mg, bioactivity .50",7.63%
same,"Calcification reduction, Max","5 mg, bioactivity .50",9.1%
same,"Calcification reduction, Min","5 mg, bioactivity .50",5.3%
same,"Calcification reduction, M","5 mg, bioactivity .60",7.99%
same,"Calcification reduction, Max","5 mg, bioactivity .60",10.4%
same,"Calcification reduction, Min","5 mg, bioactivity .60",6.2%
same,"Calcification reduction, M","5 mg, bioactivity .70",10.06%
same,"Calcification reduction, Max","5 mg, bioactivity .70",13.6%
same,"Calcification reduction, Min","5 mg, bioactivity .70",7.3%
same,"Calcification reduction, M","5 mg, bioactivity .80",14.32%
same,"Calcification reduction, Max","5 mg, bioactivity .80",16.6%
same,"Calcification reduction, Min","5 mg, bioactivity .80",11.3%
same,"Calcification reduction, M","5 mg, bioactivity .90",18.06%
same,"Calcification reduction, Max","5 mg, bioactivity .90",21%
same,"Calcification reduction, Min","5 mg, bioactivity .90",14.6%
same,"Calcification reduction, M","5 mg, bioactivity .95",19.42%
same,"Calcification reduction, Max","5 mg, bioactivity .95",22.1%
same,"Calcification reduction, Min","5 mg, bioactivity .95",15.4%
same,"Calcification reduction, M","10 mg, bioactivity .20",4.95%
same,"Calcification reduction, Max","10 mg, bioactivity .20",6.2%
same,"Calcification reduction, Min","10 mg, bioactivity .20",3.7%
same,"Calcification reduction, M","10 mg, bioactivity .30",6.24%
same,"Calcification reduction, Max","10 mg, bioactivity .30",7.5%
same,"Calcification reduction, Min","10 mg, bioactivity .30",4.9%
same,"Calcification reduction, M","10 mg, bioactivity .50",9.77%
same,"Calcification reduction, Max","10 mg, bioactivity .50",11.7%
same,"Calcification reduction, Min","10 mg, bioactivity .50",7.7%
same,"Calcification reduction, M","10 mg, bioactivity .60",11.8%
same,"Calcification reduction, Max","10 mg, bioactivity .60",14.3%
same,"Calcification reduction, Min","10 mg, bioactivity .60",9.2%
same,"Calcification reduction, M","10 mg, bioactivity .70",14.33%
same,"Calcification reduction, Max","10 mg, bioactivity .70",17.2%
same,"Calcification reduction, Min","10 mg, bioactivity .70",10.2%
same,"Calcification reduction, M","10 mg, bioactivity .80",20.03%
same,"Calcification reduction, Max","10 mg, bioactivity .80",24.6%
same,"Calcification reduction, Min","10 mg, bioactivity .80",15.9%
same,"Calcification reduction, M","10 mg, bioactivity .90",25.04%
same,"Calcification reduction, Max","10 mg, bioactivity .90",30.3%
same,"Calcification reduction, Min","10 mg, bioactivity .90",20.5%
same,"Calcification reduction, M","10 mg, bioactivity .95",25.56%
same,"Calcification reduction, Max","10 mg, bioactivity .95",32.5%
same,"Calcification reduction, Min","10 mg, bioactivity .95",18.5%
same,"Calcification reduction, M","25 mg, bioactivity .20",6.07%
same,"Calcification reduction, Max","25 mg, bioactivity .20",7.1%
same,"Calcification reduction, Min","25 mg, bioactivity .20",4.8%
same,"Calcification reduction, M","25 mg, bioactivity .30",6.23%
same,"Calcification reduction, Max","25 mg, bioactivity .30",8.1%
same,"Calcification reduction, Min","25 mg, bioactivity .30",4.6%
same,"Calcification reduction, M","25 mg, bioactivity .50",10.89%
same,"Calcification reduction, Max","25 mg, bioactivity .50",12.5%
same,"Calcification reduction, Min","25 mg, bioactivity .50",9.5%
same,"Calcification reduction, M","25 mg, bioactivity .60",13.75%
same,"Calcification reduction, Max","25 mg, bioactivity .60",15.3%
same,"Calcification reduction, Min","25 mg, bioactivity .60",10.5%
same,"Calcification reduction, M","25 mg, bioactivity .70",16.55%
same,"Calcification reduction, Max","25 mg, bioactivity .70",18.6%
same,"Calcification reduction, Min","25 mg, bioactivity .70",14.3%
same,"Calcification reduction, M","25 mg, bioactivity .80",24.94%
same,"Calcification reduction, Max","25 mg, bioactivity .80",30.3%
same,"Calcification reduction, Min","25 mg, bioactivity .80",20.2%
same,"Calcification reduction, M","25 mg, bioactivity .90",30.51%
same,"Calcification reduction, Max","25 mg, bioactivity .90",35.6%
same,"Calcification reduction, Min","25 mg, bioactivity .90",23.5%
same,"Calcification reduction, M","25 mg, bioactivity .95",32.69%
same,"Calcification reduction, Max","25 mg, bioactivity .95",42.6%
same,"Calcification reduction, Min","25 mg, bioactivity .95",26.3%
same,"Calcification reduction, M","40 mg, bioactivity .20",5.19%
same,"Calcification reduction, Max","40 mg, bioactivity .20",6.9%
same,"Calcification reduction, Min","40 mg, bioactivity .20",3.6%
same,"Calcification reduction, M","40 mg, bioactivity .30",7.13%
same,"Calcification reduction, Max","40 mg, bioactivity .30",8.1%
same,"Calcification reduction, Min","40 mg, bioactivity .30",5.1%
same,"Calcification reduction, M","40 mg, bioactivity .50",14.2%
same,"Calcification reduction, Max","40 mg, bioactivity .50",17.1%
same,"Calcification reduction, Min","40 mg, bioactivity .50",12%
same,"Calcification reduction, M","40 mg, bioactivity .60",19.23%
same,"Calcification reduction, Max","40 mg, bioactivity .60",21.9%
same,"Calcification reduction, M","40 mg, bioactivity .70",24.7%
same,"Calcification reduction, Max","40 mg, bioactivity .70",33%
same,"Calcification reduction, Min","40 mg, bioactivity .70",18.9%
same,"Calcification reduction, M","40 mg, bioactivity .80",28.54%
same,"Calcification reduction, Max","40 mg, bioactivity .80",34.6%
same,"Calcification reduction, Min","40 mg, bioactivity .80",22.4%
same,"Calcification reduction, M","40 mg, bioactivity .90",40.09%
same,"Calcification reduction, Max","40 mg, bioactivity .90",44.6%
same,"Calcification reduction, Min","40 mg, bioactivity .90",33.7%
same,"Calcification reduction, M","40 mg, bioactivity .95",42.98%
same,"Calcification reduction, Max","40 mg, bioactivity .95",54.5%
same,"Calcification reduction, Min","40 mg, bioactivity .95",35.8%
same,"Calcification reduction, M","100 mg, bioactivity .20",6.1%
same,"Calcification reduction, Max","100 mg, bioactivity .20",7.5%
same,"Calcification reduction, Min","100 mg, bioactivity .20",5.2%
same,"Calcification reduction, M","100 mg, bioactivity .30",7.2%
same,"Calcification reduction, Max","100 mg, bioactivity .30",8.4%
same,"Calcification reduction, Min","100 mg, bioactivity .30",6%
same,"Calcification reduction, M","100 mg, bioactivity .50",16.1%
same,"Calcification reduction, Max","100 mg, bioactivity .50",18.1%
same,"Calcification reduction, Min","100 mg, bioactivity .50",14.1%
same,"Calcification reduction, M","100 mg, bioactivity .60",21.54%
same,"Calcification reduction, Max","100 mg, bioactivity .60",23.7%
same,"Calcification reduction, Min","100 mg, bioactivity .60",18.3%
same,"Calcification reduction, M","100 mg, bioactivity .70",30.71%
same,"Calcification reduction, Max","100 mg, bioactivity .70",35.6%
same,"Calcification reduction, Min","100 mg, bioactivity .70",25.8%
same,"Calcification reduction, M","100 mg, bioactivity .80",37.74%
same,"Calcification reduction, Max","100 mg, bioactivity .80",44.4%
same,"Calcification reduction, Min","100 mg, bioactivity .80",31.7%
same,"Calcification reduction, M","100 mg, bioactivity .90",48.52%
same,"Calcification reduction, Max","100 mg, bioactivity .90",54.7%
same,"Calcification reduction, Min","100 mg, bioactivity .90",37.6%
same,"Calcification reduction, M","100 mg, bioactivity .95",55%
same,"Calcification reduction, Max","100 mg, bioactivity .95",66.1%
same,"Calcification reduction, Min","100 mg, bioactivity .95",41.9%
same,"Calcification reduction, M",[1],19.42%
same,"Calcification reduction, Max",[1],22.1%
same,"Calcification reduction, Min",[1],15.4%
same,"Calcification reduction, M",[2],25.56%
same,"Calcification reduction, Max",[2],32.5%
same,"Calcification reduction, Min",[2],18.5%
same,"Calcification reduction, M",[3],32.69%
same,"Calcification reduction, Max",[3],42.6%
same,"Calcification reduction, Min",[3],26.3%
same,"Calcification reduction, M",[4],42.98%
same,"Calcification reduction, Max",[4],54.5%
same,"Calcification reduction, Min",[4],35.8%
same,"Calcification reduction, M",[5],55%
same,"Calcification reduction, Max",[5],66.1%
same,"Calcification reduction, Min",[5],41.9%
